These results are taken from patent US11987589B2, “Heterocyclic flavone derivatives, compositions, and methods related thereto” (Emory University, priority 2018, dated 2024).

Where two headings read alike, the source gives them in different places.

The conditions of series [1]: human, hepatocytes.
For series [2] the following is noted: mouse, hepatocytes.
Series [3] is described as follows: BBB-PAMPA Permeability. Type of series: in vitro ADME. In general terms: The PAMPA barrier holds no transporters, so it reflects passive diffusion.
Series [4] in a line: Hepatocyte Stability (mouse). Particulars: hepatocytes.
Series [5] is described as follows: Microsomal Intrinsic Clearance (mouse). Conditions: liver microsomes; for microsomal CLint: Mouse microsomes. On the technique in general: Liver microsomes are vesicles of endoplasmic reticulum, rich in cytochrome P450 enzymes.
The nature of series [6]: Microsomal Intrinsic Clearance (human). Conditions: liver microsomes; for microsomal CLint: Human microsomes.
A short description of series [7]: Hepatocyte Stability (human). Particulars: hepatocytes.
A short description of series [8]: Plasma Stability (human). It is filed as in vitro ADME.
A short description of series [9]: Plasma Stability (mouse). It is filed as in vitro ADME.
Series [10] relates to TrkB. As to the kind of experiment: Endogenous TrkB activation in DIV13 primary cortical cultures, immunoblotting. Type of series: cell-based. Particulars: 15 min. Here is the method: Endogenous TrkB activation in primary neurons were tested in DIV13 primary cortical cultures. The neurons were treated with the two compounds with doses for 15 min. The lysates were analyzed by immunoblotting with antibodies.
A general note: Immunoblotting shows a protein as a band on a membrane.

Series [11] addresses T1, TrkB (Rattus norvegicus, UniProt Q63604).
T1 construct: expressed in transfected cells
As to the kind of experiment: TrkB activation in rat TrkB stably transfected SN56 cells (T48), immunoblotting. Type of series: cell-based. Particulars: different doses, 15 min.

Series [12] concerns T48 cells. As to the kind of experiment: Protection from staurosporine (STS)-induced apoptosis, MTT assay, T48 cells. Type of series: cell-based. On the procedure: Cytoprotective effects were tested. To examine whether these compounds protect cells from staurosporine (STS)-induced apoptosis, MTT assays were conducted using TrkB stable transfected cells or TrkB deficient SN56 cells.

The mark [13] stands for this setting: NADPH-dependent CLint, with NADPH.
Setting [14] is: NADPH-dependent T1/2, Mouse microsomes, with NADPH.
[15] abbreviates: NADPH-free T1/2, Mouse microsomes, NADPH-free.
Setting [16] is: NADPH-dependent T1/2, Human microsomes, with NADPH.
Where [17] appears, read: NADPH-free T1/2, Human microsomes, NADPH-free.

T1 sequence (Q63604 32-821): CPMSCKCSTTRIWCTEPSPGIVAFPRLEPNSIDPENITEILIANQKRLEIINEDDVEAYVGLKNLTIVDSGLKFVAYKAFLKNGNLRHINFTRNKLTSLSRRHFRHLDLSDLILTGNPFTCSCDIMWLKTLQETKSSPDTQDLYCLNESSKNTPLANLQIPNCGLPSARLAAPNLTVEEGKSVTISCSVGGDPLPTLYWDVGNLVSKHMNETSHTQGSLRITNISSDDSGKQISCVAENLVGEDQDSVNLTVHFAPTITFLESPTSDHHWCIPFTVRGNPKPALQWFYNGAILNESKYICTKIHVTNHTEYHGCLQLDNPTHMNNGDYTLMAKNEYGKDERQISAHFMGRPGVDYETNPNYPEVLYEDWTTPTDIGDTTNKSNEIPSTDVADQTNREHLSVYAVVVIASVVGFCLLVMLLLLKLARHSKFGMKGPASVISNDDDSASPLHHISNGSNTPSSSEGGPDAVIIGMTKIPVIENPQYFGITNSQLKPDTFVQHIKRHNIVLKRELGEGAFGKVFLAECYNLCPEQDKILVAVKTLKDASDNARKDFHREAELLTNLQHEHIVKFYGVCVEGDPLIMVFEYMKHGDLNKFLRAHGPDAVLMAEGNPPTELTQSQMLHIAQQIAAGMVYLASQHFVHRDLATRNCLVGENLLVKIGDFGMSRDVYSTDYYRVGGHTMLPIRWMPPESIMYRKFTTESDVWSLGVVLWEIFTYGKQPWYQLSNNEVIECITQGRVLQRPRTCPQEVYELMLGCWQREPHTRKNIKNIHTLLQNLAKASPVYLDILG

As to `O=c1ccc2ccc(O)cc2o1` [7-OH-Coumarin], in series [1], the “Avg % Remaining at Last Point” value worked out at 7.17%, the Clearance stood at 88.5 μl/min/million cells and the “Half Life” value came to 15.7 min. Further, in [2], the “Avg % Remaining at Last Point” value is given as 38.8%, the Clearance came out at 63.2 μl/min/million cells and the “Half Life” value is reported as 21.9 min.
In series [3] (Test Conc. 10 μM), `CC(C)NCC(O)COc1ccc(CC(N)=O)cc1` (stereo not drawn) [Atenolol, reference compound] yielded a recovery at 10 μM of 84.6%.
One may read the half-life as how long it takes for the measured level to halve. Read a low half-life as rapid decline. As a reminder, the hepatocyte CLint is a measure of how fast metabolising enzymes remove a compound, apart from limits set by blood flow. A higher hepatocyte CLint goes with rapid turnover. The microsomal CLint is the rate of metabolic loss divided by the concentration. Consider `Cc1ncc2n1-c1ccc(Cl)cc1C(c1ccccc1F)=NC2` [Midazolam, reference compound], for which the results for the “Avg % Remaining at Last Point” value in series [4] and in [7] were 34.0% and 9.82%, respectively. Further, the half-life in series [4] was 39.4 min; in series [5] (setting [14]), 2.1 min; in [5] (setting [15]), over 180 min; in series [6] (setting [16]), 4.52 min; in series [6] (setting [17]) it was over 180 min; in [7], 35.7 min. Besides, the intrinsic metabolic clearance (hepatocyte CLint) in [4] was found to be 35.1 µL/min/1e6 cells; in series [7], 38.8 µL/min/1e6 cells. Also, the microsomal CLint in [5] (setting [13]) was 1100 µL/min/mg; in series [5] (NADPH-free CLint, NADPH-free), under 12.8 µL/min/mg; in series [6] (setting [13]) it was 511 µL/min/mg; in series [6] (NADPH-free CLint, NADPH-free) it was under 12.8 µL/min/mg.
Take `CC(C)[N+](C)(CCOC(=O)C1c2ccccc2Oc2ccccc21)C(C)C` [Propantheline, reference compound]: in series [8], the “Avg % Remaining at Last Point” value was determined as 3.15%. The results for the half-life in series [8] and in series [9] were 23.9 min and 22.2 min, respectively.
The term EC50 denotes the midpoint of the concentration-response curve. For `Cn1c(=O)[nH]c2ccc3c(=O)cc(-c4ccc(C#N)cc4)oc3c21` [RM-CN, 4-(1-methyl-2,6-dioxo-1,2,3,6-tetrahydrochromeno[7,8-d]imidazol-8-yl)benzonitrile], in series [3] (Test Conc. 1 μM), the Pe turned out to be 2.82. In addition, the recovery at 1 μM in series [3] (Test Conc. 1 μM) is 71%. Besides, the “Avg % Remaining at Last Point” value in [8] was 91.1%; in [4], 67.1%; in series [9], 80.3%; in series [7] it was 54.8%. Moreover, the half-life in [8] was over 480 min; in series [4], 275 min; in series [5] (setting [14]), 10 min; in series [5] (setting [15]), over 180 min; in series [6] (setting [16]), 76.2 min; in series [6] (setting [17]), over 180 min. Moreover, the half-life was found to be 345 min in series [9] and 133 min in series [7]. For the same compound, the “TrkB activation in primary neurons” value in series [10] is given as “dose-dependent effect in triggering TrkB activation”. Moreover, the hepatocyte CLint was determined as 5.04 µL/min/1e6 cells in [4] and 10.5 µL/min/1e6 cells in series [7]. The intrinsic clearance (microsomal CLint) in series [5] (setting [13]) is 231 µL/min/mg; in series [5] (NADPH-free CLint, NADPH-free), under 12.8 µL/min/mg; in series [6] (setting [13]), 30.3 µL/min/mg; in [6] (NADPH-free CLint, NADPH-free), under 12.8 µL/min/mg. The “effects on p-TrkB 816” value in [11] was “behaved inversely”. The p-Akt/p-MAPK downstream signals result in [11] was “increased in a dose-dependent manner”. The “p-TrkB 706 activation” value in series [11] is on record as “activated p-TrkB 706 gradually”. Also, the EC50 in series [12] turned out to be 12.5 nM.
Consider `CC(=O)CC(c1ccccc1)c1c(O)c2ccccc2oc1=O` (stereo not drawn) [Warfarin, reference compound], for which the figures for the “Avg % Remaining at Last Point” value in series [8] and in series [9] were 93.6% and 80.8%, respectively.
